Test results published in US20120142623A1, “Compositions And Methods For Predicting Inhibitors Of Protein Targets” (priority 2006, published 2012).
Several values for one entry are separate records, joined by “and”; a condition that tells them apart may be missing. Equal values may be shown once. Read-outs that look alike come from different tables or passages of the source.

Tests used:
[1] = test system: P. falciparum; details: Table 3 section B, high throughput screen [27, 28], cited from earlier work; for EC50: read-out: ED50 in 3D7
[2] = test system: chloroquine-resistant strain K1 of P. falciparum; test: P. falciparum growth inhibition in culture, strain K1; type: cell-based, Plasmodium falciparum
[3] = test system: chloroquine-sensitive strain 3D7 of P. falciparum; test: P. falciparum growth inhibition in culture, strain 3D7; type: cell-based, Plasmodium falciparum; details: for result of the 16 tested inhibitors in words (binding): summary of Table 5
[4] = target: KSHV protease (Human herpesvirus 8 type P, UniProt Q2HRB6); test: Surface Plasmon Resonance, KSHV protease; type: binding; set-up: herpes simplex virus (HSV) proteases (including HSV2, VZV, EBV, CMV, and KSHV); details: SPR, FIG. 4
Description: (§1) Four inhibitors were evaluated; our top ranking one (TMPyP4) clearly binds to all three proteases as predicted. […] A third inhibitor, GW8510, predicted to bind fails (i.e., a misprediction). […] Our inhibitor prediction is completely consistent with the observed experimental data which is verified further by cell culture studies in FIG. 4 and compared to existing antiherpes drugs.

[5] = target: CMV protease (Human cytomegalovirus, UniProt P16753); test: Surface Plasmon Resonance, CMV protease; type: binding; set-up: herpes simplex virus (HSV) proteases (including HSV2, VZV, EBV, CMV, and KSHV); details: SPR, FIG. 4
Description: as §1

[6] = target: HSV protease; test: Surface Plasmon Resonance, HSV protease; type: binding; details: SPR, FIG. 4
Description: as §1

[7] = test system: HSV-1 strain F; test: HSV-1 infection of Vero cells, virus titer; type: cell-based; details: FIG. 5 bottom right panel; virus not named
[8] = test system: HIV-1 gp41 HR1 wild-type and mutants; details: cited from earlier work
[9] = Table 3 section A, mean of at least two measurements, read-out: ED50 in K1
[10] = Table 5, read-out: ED50 (μM) in K1
[11] = Table 3 section A, mean of at least two measurements, read-out: ED50 in 3D7
[12] = Table 5, P. falciparum ED50 in 3D7 and K1
[13] = Table 5, read-out: ED50 (μM) in 3D7
[14] = Plasmodium falciparum, K1, Table 3 section A, mean of at least two measurements, read-out: ED50 in K1
[15] = Plasmodium falciparum, K1, Table 5, read-out: ED50 (μM) in K1
[16] = Plasmodium falciparum, 3D7, Table 3 section A, mean of at least two measurements, read-out: ED50 in 3D7
[17] = Plasmodium falciparum, 3D7, Table 5, read-out: ED50 (μM) in 3D7

## COc1ccc(CCN2CCC(Nc3nc4ccccc4n3Cc3ccc(F)cc3)CC2)cc1 [Astemizole]
[1]
  % Inhibition at 10 μM in: 97.6%

## CC1(C)S[C@@H]2[C@H](NC(=O)[C@H](NC(=O)N3CCNC3=O)c3ccccc3)C(=O)N2[C@H]1C(=O)O [Azlocillin]
[1]
  EC50: 1.5 µM

## CN1CCCC1CCn1cc(C2=C(c3c[nH]c4ccccc34)C(=O)NC2=O)c2ccccc21 (centres unmarked) [Bisindolylmaleimide II]
[2]; [9]
  EC50: 1 to 10 µM
[2]; [10]
  EC50: 1 to 10 µM
[3]; [11]
  EC50: 1 to 10 µM
[3]; [12]
  experimentally determined to work: N
[3]; [13]
  EC50: 1 to 10 µM

## Cl.Cn1cc(C2=C(c3c4n(c5ccccc35)CCC(CN)C4)C(=O)NC2=O)c2ccccc21 (centres unmarked) [Bisindolylmaleimide X]
[2]; [9]
  EC50: 1 to 10 µM
[2]; [10]
  EC50: 1 to 10 µM
[3]; [11]
  EC50: 1 to 10 µM
[3]; [12]
  experimentally determined to work: N
[3]; [13]
  EC50: 1 to 10 µM

## Oc1ccc(Cc2nc3c(Cc4ccccc4)nc(-c4ccc(O)cc4)cn3c2O)cc1 [Coelenterazine]
[2]; [14]
  EC50: 1 to 10 µM
[2]; [15]
  EC50: 1 to 10 µM
[3]; [16]
  EC50: 10 to 40 µM
[3]; [17]
  EC50: 10 to 40 µM
[3]; [12]
  experimentally determined to work: N

## COc1cccc2c1C(=O)c1c(O)c3c(c(O)c1C2=O)C[C@@](O)(C(C)=O)C[C@@H]3O[C@H]1C[C@H](N)[C@H](O)[C@H](C)O1 [Daunorubicin]
[2]; [14]
  EC50: < 1 µM
[2]; [15]
  EC50: < 1 µM
[3]; [16]
  EC50: 0.13 µM
[3]; [17]
  EC50: 0.125 µM
[3]; [12]
  experimentally determined to work: Y (Y—yes (<=1uM ED50))
[3]
  result of the 16 tested inhibitors in words (binding): very strong binding
[1]
  % Inhibition at 10 μM in: 99.6%

## CN1C[C@H](C(=O)N[C@]2(C)O[C@@]3(O)[C@@H]4CCCN4C(=O)[C@H](Cc4ccccc4)N3C2=O)C[C@@H]2c3cccc4[nH]cc(c34)C[C@H]21 [Dihydroergotamine]
[1]
  % Inhibition at 10 μM in: 88.1%
  EC50: 4 µM and 3 µM

## COc1cccc2c1C(=O)c1c(O)c3c(c(O)c1C2=O)C[C@@](O)(C(=O)CO)C[C@@H]3O[C@H]1C[C@H](N)[C@@H](O)[C@H](C)O1 [Epirubicin]
[1]
  % Inhibition at 10 μM in: 98.4%

## CN([C@@H](Cc1ccc(OS(=O)(=O)c2cccc3cnccc23)cc1)C(=O)N1CCN(c2ccccc2)CC1)S(=O)(=O)c1cccc2cnccc12 [KN62]
[2]; [9]
  EC50: < 1 µM
[2]; [10]
  EC50: < 1 µM
[3]; [11]
  EC50: 0.69 µM
[3]; [12]
  experimentally determined to work: Y (Y—yes (<=1uM ED50))
[3]; [13]
  EC50: 0.69 µM
[3]
  result of the 16 tested inhibitors in words (binding): very strong binding

## CN1C[C@H](CNC(=O)OCc2ccccc2)C[C@@H]2c3cccc4c3c(cn4C)C[C@H]21 [Metergoline]
[1]
  % Inhibition at 10 μM in: 85.9%
  EC50: 5.4 µM

## CN(Cc1cnc2nc(N)nc(N)c2n1)c1ccc(C(=O)N[C@@H](CCC(=O)O)C(=O)O)cc1 [Methotrexate]
[1]
  % Inhibition at 10 μM in: 98.4%
  EC50: 0.05 µM

## O=C1c2ccc3c4ccc5c6c(ccc(c7ccc(c2c37)C(=O)N1CCN1CCCCC1)c64)C(=O)N(CCN1CCCCC1)C5=O [PIPER]
[2]; [9]
  EC50: 10 to 40 µM
[2]; [10]
  EC50: 10 to 40 µM
[3]; [11]
  EC50: 10 to 40 µM
[3]; [12]
  experimentally determined to work: N
[3]; [13]
  EC50: 10 to 40 µM

## C=CC1=C(C)c2cc3[nH]c(cc4nc(cc5[nH]c(cc1n2)c(C)c5CCC(=O)O)C(CCC(=O)O)=C4C)c(C)c3C=C [Protoporphrin, Protoporphyrin IX]
[2]; [14]
  EC50: 10 to 40 µM
[2]; [15]
  EC50: 10 to 40 µM
[3]; [16]
  EC50: 10 to 40 µM
[3]; [17]
  EC50: 10 to 40 µM
[3]; [12]
  experimentally determined to work: N

## COc1ccc(C[C@H](N)C(=O)N[C@H]2[C@@H](O)[C@H](n3cnc4c(N(C)C)ncnc43)O[C@@H]2CO)cc1 [Puromycin]
[1]
  % Inhibition at 10 μM in: 98.9%

## Cc1c(C(=O)c2cccc3ccccc23)c2cccc3c2n1[C@H](CN1CCOCC1)CO3 [R-(+)-WIN55212-2]
[2]; [9]
  EC50: 10 to 40 µM
[2]; [10]
  EC50: 10 to 40 µM
[3]
  experimentally determined to work: N
[3]; [11]
  EC50: 10 to 40 µM
[3]; [13]
  EC50: 10 to 40 µM

## O=C(c1ccc(OCCN2CCCCC2)cc1)c1c(-c2ccc(O)cc2)sc2cc(O)ccc12 [Raloxifene]
[1]
  % Inhibition at 10 μM in: 97.1%
  EC50: < 0.5 µM

## Cc1nc2n(c(=O)c1CCN1CCC(c3noc4cc(F)ccc34)CC1)CCCC2 [Risperidone]
[1]
  % Inhibition at 10 μM in: 67.5%

## CC[C@H](CO)Nc1nc(NCc2ccccc2)c2ncn(C(C)C)c2n1 [Roscovitine]
[3]; [12]
  experimentally determined to work: N

## Cc1ccc(NC(=O)c2ccc(CN3CCN(C)CC3)cc2)cc1Nc1nccc(-c2cccnc2)n1 [STI-571, Imatinib]
[3]
  result of the 16 tested inhibitors in words (binding): moderate binding

## O=CN1CCN(c2ccc(/C=C3\C(=O)Nc4ccccc43)cc2)CC1 [SU4984]
[3]; [11]
  EC50: > 40 µM
[3]; [12]
  experimentally determined to work: N

## Cc1c[nH]c(/C=C2\C(=O)Nc3ccccc32)c1CCC(=O)O [SU5402]
[3]; [11]
  EC50: > 40 µM
[3]; [12]
  experimentally determined to work: N

## Cc1cc(C)c(/C=C2\C(=O)Nc3ccc(Cl)cc32)[nH]1 [SU5614]
[3]; [12]
  experimentally determined to work: N

## CN(C)S(=O)(=O)c1ccc2c(c1)/C(=C/c1cc3c([nH]1)CCCC3)C(=O)N2 [SU6656]
[4]
  disassociation constant (Kd), KSHV protease: verified to not bind
[5]
  disassociation constant (Kd), CMV protease: verified to not bind
[3]; [11]
  EC50: > 40 µM
[3]; [12]
  experimentally determined to work: N
[3]; [13]
  EC50: 10 µM
[6]
  disassociation constant (Kd), HSV protease: verified to not bind

## O=C(O)CCC(=O)Nc1ccc(S(=O)(=O)Nc2nccs2)cc1 [Succinylsulfathiazole]
[2]; [14]
  EC50: > 40 µM
[2]; [15]
  EC50: > 40 µM
[3]; [16]
  EC50: > 40 µM
[3]; [17]
  EC50: > 40 µM
[3]; [12]
  experimentally determined to work: N

## O=C(O)c1cc(/N=N/c2ccc(S(=O)(=O)Nc3ccccn3)cc2)ccc1O [Sulfasalazine]
[2]; [14]
  EC50: > 40 µM
[2]; [15]
  EC50: > 40 µM
[3]; [16]
  EC50: > 40 µM
[3]; [17]
  EC50: > 40 µM
[3]; [12]
  experimentally determined to work: N

## CC[C@@]1(O)C(=O)OCc2c1cc1n(c2=O)Cc2cc3c(CN(C)C)c(O)ccc3nc2-1 [Topotecan]
[1]
  % Inhibition at 10 μM in: 80.1%

## C[C@]12C=CC(=O)C=C1CC[C@@H]1C2=CC[C@]2(C)[C@@H](C(=O)CN3CCN(c4cc(N5CCCC5)nc(N5CCCC5)n4)CC3)CC[C@@H]12.O=C(O)/C=C\C(=O)O [U-74389G]
[2]; [9]
  EC50: < 1 µM
[2]; [10]
  EC50: < 1 µM
[3]; [11]
  EC50: 0.83 µM
[3]; [12]
  experimentally determined to work: Y (Y—yes (<=1uM ED50))
[3]; [13]
  EC50: 0.825 µM
[3]
  result of the 16 tested inhibitors in words (binding): very strong binding

## CC[C@]1(O)C[C@@H]2CN(CCc3c([nH]c4ccccc34)[C@@](C(=O)OC)(c3cc4c(cc3OC)N(C)[C@H]3[C@@](O)(C(N)=O)[C@H](O)[C@]5(CC)C=CCN6CC[C@]43[C@@H]65)C2)C1 [Vindesine]
[1]
  % Inhibition at 10 μM in: 81.9%

## Nc1nc2c(ncn2COCCO)c(=O)[nH]1 [acylovir]
[7]
  effectiveness after passage for several cycles with both acylovir and TMPyP4: complete resistance to acylovir occurs

## Bisindolylmaleimide VII
[2]; [9]
  EC50: 1 to 10 µM
[2]; [10]
  EC50: 1 to 10 µM
[3]; [11]
  EC50: 1 to 10 µM
[3]; [12]
  experimentally determined to work: N
[3]; [13]
  EC50: 1 to 10 µM

## enfuvirtide
[8]; HR1 Wild-type
  EC50: 0.012 µg/mL
[8]; HR1 mutation N42T + N43K
  EC50: 0.388 µg/mL
[8]; HR1 mutation N42T + N43S
  EC50: 0.727 µg/mL
[8]; HR1 mutation N42T
  EC50: 0.045 µg/mL
[8]; HR1 mutation V38A + N42D
  EC50: 1.685 µg/mL
[8]; HR1 mutation V38A + N42T
  EC50: 1.782 µg/mL
[8]; HR1 mutation V38A
  EC50: 0.188 µg/mL
[8]; HR1 mutation V38E + N42S
  EC50: 6.156 µg/mL
